The source of these data is ChEMBL document CHEMBL1149426 (Bioorg Med Chem Lett, 2006).

For orientation: Ki means a dissociation constant, usually derived from enzyme kinetics or from competition with a known ligand. The low end stands for higher affinity, the high end for lower affinity. By IC50 is commonly meant the concentration that gives 50% inhibition. As a reminder, the Papp is the rate of passage across a membrane or cell layer, normalised by area and donor concentration. Low values mean poor permeation, high ones ready permeation.

One series concerns the target D(2) dopamine receptor (Homo sapiens, UniProt P14416). The experiment in a line: Binding affinity to human cloned dopamine D2 receptor.
The next series deals with D(3) dopamine receptor (Homo sapiens, UniProt P35462). The experiment in a line: Binding affinity to human cloned dopamine D3 receptor.
D(3) dopamine receptor, sequence (P35462 whole entry): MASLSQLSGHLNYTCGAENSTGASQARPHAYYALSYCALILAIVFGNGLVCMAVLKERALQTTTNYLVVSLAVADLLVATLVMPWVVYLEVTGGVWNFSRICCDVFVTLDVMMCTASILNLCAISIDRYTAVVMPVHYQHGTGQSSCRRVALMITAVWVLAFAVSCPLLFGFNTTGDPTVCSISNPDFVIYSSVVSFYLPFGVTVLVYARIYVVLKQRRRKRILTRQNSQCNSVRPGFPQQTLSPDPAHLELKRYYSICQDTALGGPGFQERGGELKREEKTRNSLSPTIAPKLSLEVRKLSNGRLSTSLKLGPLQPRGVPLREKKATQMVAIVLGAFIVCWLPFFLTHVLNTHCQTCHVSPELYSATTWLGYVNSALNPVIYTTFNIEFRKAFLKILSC
The test system of series [1] is Liver microsomes. Put plainly: Metabolic stability in rat liver microsomes. The series is classed as ADME, Microsome. In general terms: Liver microsomes are a subcellular fraction often used to study metabolism.
In another series the target is D(1A) dopamine receptor (Homo sapiens, UniProt P21728). The experiment in a line: Inhibitory activity against dopamine D1 receptor.
D(1A) dopamine receptor, sequence (P21728 whole entry): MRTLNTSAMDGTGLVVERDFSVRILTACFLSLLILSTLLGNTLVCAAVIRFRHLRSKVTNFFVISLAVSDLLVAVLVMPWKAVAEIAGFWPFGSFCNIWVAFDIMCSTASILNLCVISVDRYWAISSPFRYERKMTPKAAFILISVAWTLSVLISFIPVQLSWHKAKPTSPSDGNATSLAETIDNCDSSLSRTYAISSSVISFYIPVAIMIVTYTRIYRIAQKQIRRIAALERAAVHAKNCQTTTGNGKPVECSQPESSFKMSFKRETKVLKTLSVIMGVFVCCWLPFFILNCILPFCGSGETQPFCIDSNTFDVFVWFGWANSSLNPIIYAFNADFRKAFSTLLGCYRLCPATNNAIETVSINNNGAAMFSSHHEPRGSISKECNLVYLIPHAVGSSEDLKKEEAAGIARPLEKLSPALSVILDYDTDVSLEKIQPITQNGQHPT
Series [2] in a line: Permeability across Caco-2 cell membrane. The series is classed as ADME, cell-based. Conditions: human. On the technique in general: Caco-2 monolayers are a common model of the intestinal barrier.
A further series relates to Rattus norvegicus. Put plainly: Ability to restitute huddling in rat at 2.15 mg/kg, po. The series is classed as functional.
The target of a further series is T1, Cholecystokinin receptor (Homo sapiens, UniProt P32239+P32238).
T1 sequence (P32239 whole entry): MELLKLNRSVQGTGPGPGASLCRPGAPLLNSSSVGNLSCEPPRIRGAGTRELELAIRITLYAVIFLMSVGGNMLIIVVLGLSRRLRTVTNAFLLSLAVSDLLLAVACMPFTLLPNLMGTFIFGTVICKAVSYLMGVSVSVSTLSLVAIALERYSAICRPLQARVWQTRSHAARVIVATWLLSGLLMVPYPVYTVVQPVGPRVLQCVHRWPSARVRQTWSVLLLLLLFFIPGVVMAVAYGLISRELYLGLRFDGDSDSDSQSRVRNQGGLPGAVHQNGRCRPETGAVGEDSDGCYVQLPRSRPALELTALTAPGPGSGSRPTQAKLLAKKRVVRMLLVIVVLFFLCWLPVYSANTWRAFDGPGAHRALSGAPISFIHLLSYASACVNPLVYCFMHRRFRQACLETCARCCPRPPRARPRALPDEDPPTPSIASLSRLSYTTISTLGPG
T1 sequence (P32238 whole entry): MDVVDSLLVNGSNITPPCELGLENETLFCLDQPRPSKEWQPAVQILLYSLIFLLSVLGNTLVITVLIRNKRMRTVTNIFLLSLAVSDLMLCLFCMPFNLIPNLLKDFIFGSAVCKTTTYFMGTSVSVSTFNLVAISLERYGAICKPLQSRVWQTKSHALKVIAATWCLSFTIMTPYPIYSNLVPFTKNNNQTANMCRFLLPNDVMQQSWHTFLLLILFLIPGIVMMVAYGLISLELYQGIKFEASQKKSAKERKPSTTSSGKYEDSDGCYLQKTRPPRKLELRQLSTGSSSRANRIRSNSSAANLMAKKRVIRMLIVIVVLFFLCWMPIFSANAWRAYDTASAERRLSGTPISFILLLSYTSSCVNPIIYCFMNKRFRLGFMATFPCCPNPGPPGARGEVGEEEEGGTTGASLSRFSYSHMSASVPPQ
The experiment in a line: Inhibitory activity against cholecystokinin receptor. The series is classed as protein assay.

Series [3] deals with Opioid receptors; mu/kappa/delta (Homo sapiens, UniProt P41145+P41143+P35372). Put plainly: Inhibitory activity against opioid receptor. The series is classed as protein assay.
A further series deals with Adenosine receptor (Homo sapiens, UniProt P30542+P29275+P0DMS8+P29274). Put plainly: Inhibitory activity against adenosine receptor. The series is classed as protein assay.
The nature of series [4]: Inhibitory activity against adrenergic receptor.
Series [5] in a line: Inhibitory activity against neurotransmitter transporter.
The species named for the next series is Canis familiaris. Put plainly: Metabolic stability in dog liver microsomes. The series is classed as ADME, Canis lupus familiaris.
Series [6] deals with Liver microsomes. The experiment in a line: Metabolic stability in human liver microsomes. The series is classed as ADME, Microsome.
A short description of series [7]: Inhibitory activity against 5HT receptor.
The target of series [8] is Muscarinic acetylcholine receptor. The experiment in a line: Inhibitory activity against muscarinic receptor. The series is classed as protein assay.
A short description of series [9]: Inhibitory activity against GABA receptor.
Series [10] concerns the target GABA-A receptor; anion channel. The experiment in a line: Inhibitory activity against central benzodiazepine receptor. The series is classed as protein-complex assay.
The target in another series is D(1B) dopamine receptor (Homo sapiens, UniProt P21918). The experiment in a line: Inhibitory activity against dopamine D5 receptor.
D(1B) dopamine receptor, sequence (P21918 whole entry): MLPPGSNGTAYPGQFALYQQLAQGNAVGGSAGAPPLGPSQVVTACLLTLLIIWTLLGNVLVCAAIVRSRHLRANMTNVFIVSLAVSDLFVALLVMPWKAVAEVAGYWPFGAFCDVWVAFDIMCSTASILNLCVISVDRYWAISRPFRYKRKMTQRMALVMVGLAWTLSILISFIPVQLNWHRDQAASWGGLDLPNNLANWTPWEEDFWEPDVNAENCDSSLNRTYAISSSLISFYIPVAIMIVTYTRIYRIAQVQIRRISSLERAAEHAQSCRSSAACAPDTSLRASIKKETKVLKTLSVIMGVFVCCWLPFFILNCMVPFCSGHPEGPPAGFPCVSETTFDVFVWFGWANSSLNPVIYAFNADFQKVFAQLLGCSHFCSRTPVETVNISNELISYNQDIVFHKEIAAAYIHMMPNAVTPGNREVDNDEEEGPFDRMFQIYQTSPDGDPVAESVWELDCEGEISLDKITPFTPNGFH

SMILES strings stand for the structures. Some results are limits rather than exact numbers.

D(2) dopamine receptor, sequence (P14416 whole entry): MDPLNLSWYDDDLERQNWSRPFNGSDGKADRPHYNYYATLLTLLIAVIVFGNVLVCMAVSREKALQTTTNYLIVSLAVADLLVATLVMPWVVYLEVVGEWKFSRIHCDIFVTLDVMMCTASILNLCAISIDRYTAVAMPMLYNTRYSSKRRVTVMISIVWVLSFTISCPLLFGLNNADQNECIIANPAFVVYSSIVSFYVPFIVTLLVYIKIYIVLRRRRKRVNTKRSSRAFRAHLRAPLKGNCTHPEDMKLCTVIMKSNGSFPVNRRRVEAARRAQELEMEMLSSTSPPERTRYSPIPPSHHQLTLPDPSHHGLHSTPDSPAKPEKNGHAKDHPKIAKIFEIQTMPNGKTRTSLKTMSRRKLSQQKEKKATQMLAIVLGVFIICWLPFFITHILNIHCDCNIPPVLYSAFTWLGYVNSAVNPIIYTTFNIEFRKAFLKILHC

As to `C[C@H](CCN1CCN(c2cc(C(F)(F)F)nc(C(C)(C)C)n2)CC1)CN1C(=O)CCc2ccccc21`, the Ki on D(2) dopamine receptor was found to be 261 nM; on D(3) dopamine receptor it was 64.9 nM.
As to `CC(C)(C)c1nc(N2CCN(CCCCN3C(=O)CC(=O)c4ccccc43)CC2)cc(C(F)(F)F)n1`, the Ki at D(2) dopamine receptor was determined as 142 nM; at D(3) dopamine receptor, 39.6 nM.
As to `CC(C)(C)c1nc(N2CCN(CCCCN3C(=O)CCc4ccccc43)CC2)cc(C(F)(F)F)n1`, the Ki on D(2) dopamine receptor is 126 nM; at D(3) dopamine receptor it was 3.4 nM.
Consider `CC(C)(C)c1nc(N2CCN(CCCCN3C(=O)CCSc4ccccc43)CC2)cc(C(F)(F)F)n1`, for which the Ki on D(2) dopamine receptor was 83 nM; at D(3) dopamine receptor it was 9.6 nM.
Regarding `CC(C)(C)c1nc(N2CCN(CCCN3C(=O)CCc4ccccc43)CC2)cc(C(F)(F)F)n1`, affinity on D(3) dopamine receptor was put at a Ki of 93.8 nM.
In the case of `COc1cccc2c1CCCC(=O)N2CCCCN1CCN(c2cc(C(F)(F)F)nc(C(C)(C)C)n2)CC1`, the results for the inhibition constant (Ki) on D(2) dopamine receptor and on D(3) dopamine receptor were 243 nM and 10.1 nM, respectively.
For the compound `C[C@@H](CCCN1C(=O)CCc2ccccc21)N1CCN(c2cc(C(F)(F)F)nc(C(C)(C)C)n2)CC1`, the inhibition constant (Ki) at D(2) dopamine receptor came out at 289 nM; on D(3) dopamine receptor, 22.4 nM.
On to `CC(C)(C)c1nc(N2CCN(CCCCN3C(=O)COc4ccccc43)CC2)cc(C(F)(F)F)n1`, for which the Ki turned out to be 354 nM on D(2) dopamine receptor and 12.1 nM on D(3) dopamine receptor.
With `CC(C)(C)c1nc(N2CCN(CCCCN3Cc4ccccc4CC3=O)CC2)cc(C(F)(F)F)n1`, the Ki at D(3) dopamine receptor turned out to be 293 nM.
For the compound `CC(C)(C)c1nc(N2CCN(CCCCN3CCC(=O)CCC3=O)CC2)cc(C(F)(F)F)n1`, the figures for the Ki on D(2) dopamine receptor and on D(3) dopamine receptor were 65 nM and 3.9 nM, respectively.
Turning to `CC(C)(C)c1nc(N2CCN(CCCCN3C(=O)CCCc4ccccc43)CC2)cc(C(F)(F)F)n1`, the Ki at D(2) dopamine receptor amounted to 118 nM; at D(3) dopamine receptor, 16.8 nM.
Turning to `COc1cc2c(cc1OC)N(CCCCN1CCN(c3cc(C(F)(F)F)nc(C(C)(C)C)n3)CC1)C(=O)CCC2=O`, the Ki at D(2) dopamine receptor is 467 nM.
`CC(C)(C)c1nc(N2CCN(CCCCN3C(=O)CCCc4c(O)cccc43)CC2)cc(C(F)(F)F)n1` gave a Ki on D(2) dopamine receptor of 93 nM.
Regarding `CC(C)(C)c1nc(N2CCN(CCCCn3c(=O)ccc4ccccc43)CC2)cc(C(F)(F)F)n1`, the figures for the Ki on D(2) dopamine receptor and at D(3) dopamine receptor were 151 nM and 11.2 nM, respectively.
For `CC(C)(C)c1nc(N2CCN(CCCCN3C(=O)CCC(=O)c4ccccc43)CC2)cc(C(F)(F)F)n1`, the Ki on D(2) dopamine receptor was found to be 246 nM. For the same compound, the Stability in the series with Liver microsomes [1], in the series listed under Canis familiaris and in the series with Liver microsomes [6] was more than 97% each time. Besides, the half-inhibitory concentration (IC50) (at D(1A) dopamine receptor; at Cholecystokinin receptor; in series [3]; on Adenosine receptor; in series [4]; in [5]) was more than 10000 nM throughout. In addition, the IC50 (in [7]; in series [8]; in series [9]; in [10]; against D(1B) dopamine receptor) was more than 10000 nM in each case. The apparent permeability (Papp) in series [2] amounted to 0.33 ×10⁻⁶ cm/s. The Activity in the series with Rattus norvegicus amounted to 37%.
`CC(C)(C)c1nc(N2CCN(C/C=C/CN3C(=O)CCc4ccccc43)CC2)cc(C(F)(F)F)n1`: at D(2) dopamine receptor, the affinity corresponds to a Ki of 254 nM.
In turn, `CC(C)(C)c1nc(N2CCN(CCCCCN3C(=O)CCc4ccccc43)CC2)cc(C(F)(F)F)n1` yielded a Ki on D(3) dopamine receptor of 4050 nM.
Consider `C/C(=C\CN1CCN(c2cc(C(F)(F)F)nc(C(C)(C)C)n2)CC1)CN1C(=O)CCc2ccccc21`, for which the Ki at D(2) dopamine receptor was found to be 669 nM; on D(3) dopamine receptor it was 58.9 nM.
